The source of these data is US10844062B2, “Pyridine derivative inhibiting RAF kinase and vascular endothelial growth factor receptor, method for preparing same, pharmaceutical composition containing same, and use thereof” (SAMJIN PHARMACEUTICAL CO., LTD., priority 2016, dated 2020).

The structures appear in SMILES notation.

As a reminder, the IC50 is the concentration that inhibits the measured activity by half.

The experiment has as its system LS513 KRAS G12V (colon). The experiment in a line: MTT assay. The following applies: Homo sapiens, LS-513, 72 h, Table 4; 3 days incubation; read-out: MTT assay IC50 KRAS mutant (Colon) LS513 KRAS G12V. The experiment is classed as cell-based. The procedure: MTT assay is frequently used for the purpose of primary screening for the sensitivity of anticancer agents and to examine cytotoxicity. When cancer cells are treated with varying concentrations of any anticancer agent for a predetermined time to induce death of the cells and are then treated with MTT, and when the formation of formazan is measured, the concentration of the anticancer agent, at which about 50% of the cells survive, can be determined. This concentration value is called IC50. IC50 values differ between drugs, and thus can be characteristic of the drugs. Using this method, the effects of anticancer agents against cell proliferation can be quantitatively compared. Thus, in order to measure the cytotoxicity of samples, MTT assay was performed using CellTiter 96 Non-radioactive Cell Proliferation Assay Kit (Promega).
Cells in a cell suspension were counted with a hematocytometer, and then 200 μL of the cell suspension was added to each well of a 96 well plate at a desired concentration (cell amount determined depending on a cell line). After cell seeding, the cells were incubated in a CO2 incubator at 37° C. overnight. After one day of cell stabilization, the cells were treated with desired concentrations of the compounds. The cells were incubated in a CO2 incubator at 37° C. for 3 days, and then the sample was removed, and 200 μL of MTT solution was added to each well. After 2 hours of incubation, the MTT dilution was carefully shaken, and 200 μL of DMSO was added to each well, followed by shaking with a plate shaker for 60 minutes.
For orientation: Tetrazolium assays rely on reduction of a dye to a coloured formazan, in cell work by metabolically active cells.

Turning to `CC(C)(C#N)c1cccc(C(=O)Nc2ccc(F)c(Nc3ncccc3-c3ncnc4[nH]cnc34)c2)c1` [Example 49, N-(3-(3-(9H-Purin-6-Yl)Pyridin-2-Ylamino)-4-Fluorophenyl)-3-(2-Cyanopropan-2-Yl)Benzamide], the IC50 was determined as 192 nM. In the case of `O=C(Nc1cc(Nc2ncccc2-c2ncnc3[nH]cnc23)ccc1F)c1ccnc(C(F)(F)F)c1F` [Example 148, N-5-[(3-(9H-purin-6-yl)pyridin-2-yl)amino]-2-fluorophenyl-3-fluoro-2-(trifluoromethyl)isonicotinamide] it was 529 nM; in that of `COc1ccc(C(=O)Nc2ccc(F)c(Nc3ncccc3-c3ncnc4[nH]cnc34)c2F)cc1C(F)(F)F` [Example 38, N-(3-(3-(9H-Purin-6-Yl)Pyridin-2-Ylamino)-2,4-Difluorophenyl)-4-Methoxy-3-(Trifluoromethyl)Benzamide], 1860 nM; in that of `O=C(Nc1ccc(F)c(Nc2ncccc2-c2ncnc3[nH]cnc23)c1F)c1cncs1` [Example 8, N-(3-(3-(9H-purin-6-yl)pyridin-2-ylamino)-2,4-difluorophenyl)thiazole-5-carboxamide], above 10000 nM. Turning to `COc1cccc(C(=O)Nc2ccc(F)c(Nc3ncccc3-c3ncnc4[nH]cnc34)c2F)c1` [Example 35, N-(3-(3-(9H-Purin-6-Yl)Pyridin-2-Ylamino)-2,4-Difluorophenyl)-3-Methoxybenzamide], the IC50 is above 10000 nM. Consider `O=C(Nc1ccc(F)c(Nc2ncccc2-c2ncnc3[nH]cnc23)c1F)c1cnccn1` [Example 56, N-(3-(3-(9H-Purin-6-Yl)Pyridin-2-Ylamino)-2,4-Difluorophenyl)Pyrazine-2-Carboxamide], for which the IC50 was above 10000 nM. Take `O=C(Nc1ccc(Cl)c(C(F)(F)F)c1)Nc1cc(Nc2ncccc2-c2ncnc3[nH]cnc23)ccc1F` [Example 74, 1-(4-Chloro-3-Trifluoromethylphenyl)-3-2-Fluoro-5-[3-(9H-Purin-6-Yl)Pyridin-2-Ylamino]Phenylurea]: the IC50 was found to be 68 nM. Regarding `COc1ccc(NC(=O)c2cccc(C(C)(C)C#N)c2)cc1Nc1ncccc1-c1ncnc2[nH]cnc12` [Example 152, N-3-[(3-(9H-purin-6-yl)pyridin-2-yl)amino]-4-methoxyphenyl-3-(2-cyanopropan-2-yl)benzamide], the IC50 amounted to 2960 nM. Turning to `O=C(Nc1cc(Nc2ncccc2-c2ncnc3[nH]cnc23)ccc1Cl)c1cccc(C(F)(F)F)c1` [Example 66, N-2-Chloro-5-[3-(9H-Purin-6-Yl)Pyridin-2-Ylamino)Phenyl-3-Trifluoromethylbenzamide], the IC50 was found to be 135 nM.

In the case of `CC(C)(C#N)c1cc(F)cc(C(=O)Nc2ccc(F)c(Nc3ncccc3-c3ncnc4[nH]cnc34)c2F)c1` [Example 43, N-(3-(3-(9H-Purin-6-Yl)Pyridin-2-Ylamino)-2,4-Difluorophenyl)-3-(2-Cyanopropan-2-Yl)-5-Fluorobenzamide], the IC50 turned out to be 402 nM.

As to `CC(C)(C#N)c1cc(F)cc(C(=O)Nc2cc(Nc3ncccc3-c3ncnc4[nH]ccc34)ccc2F)c1` [Example 92, 3-(2-Cyanopropan-2-Yl)-5-Fluoro-N-2-Fluoro-5-[3-(7H-Pyrrolo[2,3-d]Pyrimidin-4-Yl)Pyridin-2-Ylamino]Phenyl Benzamide], the IC50 was 1510 nM.

Regarding `CC(C)(C#N)c1cccc(C(=O)Nc2cccc(Nc3ncccc3-c3ncnc4[nH]ccc34)c2F)c1` [Example 86, N-(3-(3-(7H-Pyrrolo[2,3-d]Pyrimidin-4-Yl)Pyridin-2-Ylamino)-2-Fluorophenyl)-3-(2-Cyanopopan-2-Yl)Benzamide], the IC50 is above 10000 nM. As for `CC(C)(C#N)c1cccc(C(=O)Nc2cc(Nc3ncccc3-c3ncnc4[nH]cnc34)ccc2F)n1` [Example 119, N-5-[(3-(9H-purin-6-yl)pyridin-2-yl)amino]-2-fluorophenyl-6-(2-cyanopropan-2-yl)picolinamide], the figure is above 10000 nM; as for `O=C(Nc1cc(Nc2ncccc2-c2ncnc3[nH]cnc23)ccc1F)c1cc(C(F)(F)F)ccc1C(F)(F)F` [Example 130, N-5-[(3-(9H-purin-6-yl)pyridin-2-yl)amino]-2-fluorophenyl-2,5-bis(trifluoromethyl)benzamide], 1050 nM. As to `CS(=O)(=O)c1cccc(C(=O)Nc2cc(Nc3ncccc3-c3ncnc4[nH]cnc34)ccc2F)c1` [Example 126, N-5-[(3-(9H-purin-6-yl)pyridin-2-yl)amino]-2-fluorophenyl-3-(methylsulfonyl)benzamide], the IC50 was 1110 nM.

For the compound `Cc1cn(-c2cc(C(=O)Nc3ccc(F)c(Nc4ncccc4-c4ncnc5[nH]cnc45)c3F)cc(C(F)(F)F)c2)cn1` [Example 2, N-(3-(3-(9H-purin-6-yl)pyridin-2-ylamino)-2,4-difluorophenyl)-3-(4-methyl-1H-imidazol-1-yl)-5-(trifluoromethyl)benzamide], the IC50 was above 10000 nM.

As for `O=C(Nc1ccc(F)c(Nc2ncccc2-c2ncnc3[nH]cnc23)c1F)c1ccno1` [Example 7, N-(3-(3-(9H-purin-6-yl)pyridin-2-ylamino)-2,4-difluorophenyl)isoxazole-5-carboxamide], the IC50 was above 10000 nM. In the case of `O=C(Nc1ccc(F)c(Nc2ncccc2-c2ncnc3[nH]cnc23)c1F)c1cc(F)cc(C(F)(F)F)c1` [Example 28, N-(3-(3-(9H-purin-6-yl)pyridin-2-ylamino)-2,4-difluorophenyl)-3-fluoro-5-(trifluoromethyl)benzamide] it was 958 nM; in that of `O=C(Nc1cc(Nc2ncccc2-c2ncnc3[nH]cnc23)ccc1F)c1cccc(C2CC2)c1` [Example 141, N-5-[(3-(9H-purin-6-yl)pyridin-2-yl)amino]-2-fluorophenyl-3-cyclopropylbenzamide], 445 nM.

Turning to `O=C(Nc1cc(Nc2ncccc2-c2ncnc3[nH]cnc23)ccc1F)c1cc([N+](=O)[O-])cc(C(F)(F)F)c1` [Example 62, N-2-Fluoro-5-[3-(9H-Purin-6-Yl)Pyridin-2-Ylamino)Phenyl-3-Nitro-5-(Trifluoromethyl)Benzamide], the IC50 turned out to be 702 nM. In the case of `CN(C)c1cccc(C(=O)Nc2ccc(F)c(Nc3ncccc3-c3ncnc4[nH]cnc34)c2F)c1` [Example 46, N-(3-(3-(9H-Purin-6-Yl)Pyridin-2-Ylamino)-2,4-Difluorophenyl)-3-(Dimethylamino)Benzamide], the IC50 turned out to be 7090 nM.

On to `CC(C)(C#N)c1cccc(C(=O)Nc2cccc(Nc3ncccc3-c3ncnc4[nH]cnc34)c2F)c1` [Example 29, N-(3-(3-(9H-purin-6-yl)pyridin-2-ylamino)-2-fluorophenyl)-3-(2-cyanopropan-2-yl)benzamide], for which the IC50 is 978 nM. `O=C(Nc1ccc(F)c(Nc2ncccc2-c2ncnc3[nH]cnc23)c1F)c1ccc(N2CCSCC2)c(C(F)(F)F)c1` [Example 14, N-(3-(3-(9H-purin-6-yl)pyridin-2-ylamino)-2,4-difluorophenyl)-4-thiomorpholino-3-(trifluoromethyl)benzamide]: the IC50 was 851 nM. As for `CC(C)(C#N)c1cccc(C(=O)Nc2c(F)ccc(Nc3ncccc3-c3ncnc4[nH]cnc34)c2F)c1` [Example 25, N-(3-(3-(9H-purin-6-yl)pyridin-2-ylamino)-2,6-difluorophenyl)-3-(2-cyanopropan-2-yl)benzamide], the figure is above 10000 nM. Turning to `O=C(Cc1cccc(C(F)(F)F)c1)Nc1cc(Nc2ncccc2-c2ncnc3[nH]cnc23)ccc1F` [Example 76, N-2-Fluoro-5-[3-(9H-Purin-6-Yl)Pyridin-2-Ylamino]Phenyl-2-(3-Trifluoromethylphenyl)Acetamide], the half-inhibitory concentration (IC50) was 426 nM.

For the compound `CC(C)(C#N)c1cc(F)cc(C(=O)Nc2cc(Nc3ncccc3-c3ncnc4[nH]cnc34)ccc2Cl)c1` [Example 127, N-5-[(3-(9H-purin-6-yl)pyridin-2-yl)amino]-2-chlorophenyl-3-(2-cyanopropan-2-yl)-5-fluorobenzamide], the IC50 came to 591 nM. Turning to `CC(C)(C#N)c1cccc(C(=O)Nc2cc(Nc3ncccc3-c3ncnc4[nH]ccc34)ccc2F)c1` [Example 91, 3-(2-Cyanopropan-2-Yl)-N-2-Fluoro-5-[3-(7H-Pyrrolo[2,3-d]Pyrimidin-4-Yl)Pyridin-2-Ylamino]Phenyl Benzamide], the IC50 was 1120 nM.

With `O=C(Nc1cc(Nc2ncccc2-c2ncnc3[nH]ccc23)ccc1F)c1cccc(C(F)(F)F)c1` [Example 87, N-2-Fluoro-5-[3-(7H-Pyrrolo[2,3-d]Pyrimidin-4-Yl)Pyridin-2-Ylamino]Phenyl-3-Trifluoromethyl Benzamide], the IC50 was 2180 nM.

Turning to `CC(C)(C#N)c1cccc(C(=O)Nc2cc(Nc3ncccc3-c3ncnc4[nH]cnc34)ccc2Cl)c1` [Example 24, N-(5-(3-(9H-purin-6-yl)pyridin-2-ylamino)-2-chlorophenyl)-3-(2-cyanopropan-2-yl)benzamide], the IC50 is 476 nM. For the compound `COc1ccc(C(=O)Nc2cc(Nc3ncccc3-c3ncnc4[nH]cnc34)ccc2F)cc1OC(F)(F)F` [Example 150, N-5-[(3-(9H-purin-6-yl)pyridin-2-yl)amino]-2-fluorophenyl-4-methoxy-3-(trifluoromethoxy)benzamide], the half-inhibitory concentration (IC50) amounted to 250 nM. As for `CC(C)(C#N)c1cc(C(=O)Nc2cc(Nc3ncccc3-c3ncnc4[nH]cnc34)ccc2F)ccc1F` [Example 116, N-5-[(3-(9H-purin-6-yl)pyridin-2-yl)amino]-2-fluoropheny-3-(2-cyanopropan-2-yl)-4-fluorobenzamide], the figure is 587 nM.
